Results reported in patent US5504097A, “N-hydroxyureas as 5-lipoxygenase inhibitors and inhibitors of oxidative modification of low density lipoprotein” (American Home Products Corporation, priority 1995, dated 1996).

Experiments:
Lipoxygenase = test: Ex-Vivo Measurement of Lipoxygenase Inhibition in Orally Dosed Rats (LTB4 in A23187-stimulated blood); parameters: species or system Male Sprague Dawley rats; settings: 10 mg/kg, p.o.
Method: 2. Ex-Vivo Measurement of Lipoxygenase Inhibition in Orally Dosed Rats
After an interval of 3 or 6 hours, the rats were anesthetized with metofane (n=4/group) and blood collected in heparinized tubes. White blood cell counts and differentials were made. One ml of blood from each animal was placed in a 5 ml plastic tube in a shaker bath at 37° C. A23187 at a final concentration of 10 μM was added to the blood and the blood vortexed and incubated for 15 min at 37° C. with gentle shaking. Incubation was terminated by vortexing sample and centrifuging immediately at 1200× G for 15 min at 4° C. The plasma was transferred to 15 ml plastic tubes each containing 8 ml of methanol to precipitate protein followed by vortexing. The samples were stored at -70° C. overnight and the next day the samples were centrifuged at 800× G for 15 min to pellet the precipitate. The samples were dried in a Savant SpeedVac Concentrator Model SVC 200H and reconstituted to the original volume with cold RIA or ELISA buffer. The reconstituted samples were stored at -70° C. until assayed. The assay for LTB4 was performed according to the directions of the ^3 H!RIA kit or ELISA kit (Seragen). The total metabolite level in 1 ml of blood is calculated and reported as ng/10^6 neutrophils. Significance is determined by a one-way analysis of variance with LSD comparisons to control (p≤0.05).

5-Lipoxygenase = biological target: T1, 5-Lipoxygenase (Homo sapiens, UniProt P09917); test: Inhibition of 5-Lipoxygenase in Human Whole Blood (LTB4, calcium ionophore A23187); type: cell-based
T1 construct: from tissue; host or cells: whole blood of male human donors (endogenous enzyme of the leukocytes)
T1 sequence (P09917 1-674): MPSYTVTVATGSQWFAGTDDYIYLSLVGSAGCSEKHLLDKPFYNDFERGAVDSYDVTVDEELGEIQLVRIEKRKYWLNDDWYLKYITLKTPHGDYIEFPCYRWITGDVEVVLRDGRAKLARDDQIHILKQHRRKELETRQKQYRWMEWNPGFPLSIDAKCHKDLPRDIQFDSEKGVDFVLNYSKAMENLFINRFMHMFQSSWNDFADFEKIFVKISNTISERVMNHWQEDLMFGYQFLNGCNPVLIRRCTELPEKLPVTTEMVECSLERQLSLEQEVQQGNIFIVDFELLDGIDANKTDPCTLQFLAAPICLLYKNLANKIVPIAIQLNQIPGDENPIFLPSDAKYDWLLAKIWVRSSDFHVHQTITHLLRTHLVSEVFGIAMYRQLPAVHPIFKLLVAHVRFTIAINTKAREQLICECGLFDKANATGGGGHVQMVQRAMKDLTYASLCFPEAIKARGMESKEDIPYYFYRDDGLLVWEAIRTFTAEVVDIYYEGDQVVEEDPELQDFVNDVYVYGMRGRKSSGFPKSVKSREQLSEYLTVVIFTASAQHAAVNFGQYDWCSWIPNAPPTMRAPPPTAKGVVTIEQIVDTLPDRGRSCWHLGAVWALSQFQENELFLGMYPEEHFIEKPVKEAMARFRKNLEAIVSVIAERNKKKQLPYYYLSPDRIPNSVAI
Method: 1. Inhibition of 5-Lipoxygenase in Human Whole Blood
Blood is obtained in 50-100 ml quantities from male donors. White blood cell counts and differentials are made. Two ml of blood are placed in a 15 ml polypropylene test tube. Test compounds are solubilized in dimethylsulfoxide and diluted in 1:10 in 10% bovine serum albumin in phosphate buffered saline, pH 7.4 resulting in a final dimethylsulfoxide concentration of 0.1% in the blood. Then, solutions of test compounds are added to the blood in a shaking water bath at 37° C. for 10 minutes prior to the addition of 30 μM calcium ionophore (A23187, Sigma). After ionophore administration, whole blood samples are mixed and incubated for 20 minutes at 37° C. in a shaking water bath. Incubation is terminated by placing samples in an ice bath and immediately adding ethylene glycol-bis-(β-aminoethyl ether)-N, N,N',N'-tetraacetic acid (10 mM). Samples are mixed and centrifuged at 1200× g for 15 minutes at 4° C. Preparation of samples for evaluation by RIA or ELISA is carried out by the following protocol. Plasma is removed from sample tubes, placed in 15 ml polypropylene test tubes containing 8 ml methanol, and then vortexed to precipitate protein. Samples are stored at -70° C. overnight. The next day, samples are centrifuged at 200× g for 15 minutes at 4° C. to pellet the precipitate. Samples are dried in a Savant SpeedVac Concentrator, Model SVC 200H, reconstituted to original volume with ice cold RIA or ELISA buffer, and stored at -70° C. until assayed. The assay for eicosanoids (LTB4, T×B2, and PGE2) is performed as described by the manufacturer of the ^3 H!-RIA kit or ELISA kit (LTB4 -Amersham, T×B2 and PGE2 -Caymen Chemical).
The total eicosanoid level in 2 ml of blood is calculated and reported as ng/10^6 neutrophils. Significance is determined by a one-way analysis of variance with least significant difference (LSD) comparisons to control (p≤0.05) and IC50 's (μM) are determined by regression analysis (Finney, 1978). Drug effects are expressed as percent change from control values.

Low Density Lipoprotein = test: Inhibition of Copper Ion Mediated Oxidation of Low Density Lipoprotein; type: biochemical; settings: Cu^+2 mediated oxidation of rabbit or monkey LDL
Method: 5. Inhibition of Copper Ion Mediated Oxidation of Low Density Lipoprotein
In this in vitro assay, the inhibition of Cu^+2 mediated oxidation of rabbit or monkey LDL by an invention compound is determined spectrophotometricallly. Oxidation of LDL results in the formation of LDL-diene which absorbs light at 532 nm. Inhibition of oxidation of LDL leads to a decrease in absorbance at 532 nm.
Rabbit or monkey LDL is prepared according to the procedures of Havel, Eder and Gragdon, "The Distribution and Chemical Composition of Ultracentrifugally Separated Lipoproteins in Human Serum,: J, Clin. Invest. 34, 1345-1353 (1955) and Parhtasarathy, Wieland and Steriberg, "A Role for Endothelial Cell Lipoxygenase in the Oxidative Modification of Low Density Lipoprotein," Proc, Natl. Acad. Sci. USA 86, 1046-1050 (1989). Test compound solutions are prepared by dissolving the invention compounds in ethanol at concentrations up to 248 μM. The medium used is Dulbecco's phosphate buffered saline containing 0.5 mg/ml bovine serum albumin. For standards, 0 to 10 μl of an aqueous solution of 1,1,3,3-tetraethoxypropane (1 μmol/ml H2 O) in 4.1 ml of medium is used.
Test compound solution (100 μl) is added to 4 ml of medium in incubation tubes. To each tube is added 10 μl of LDL solution and 25 μl of aqueous copper sulfate solution (1.32 mg/ml H2 O ). The tubes are incubated at 37° C. for 90 minutes and the oxidation reaction quenched by addition of 1 ml of thiobarbituric acid solution (0.67% in 50% acetic acid). The tubes are heated at 90° C. for 1 hour, then chilled in an ice bath and the chromophore extracted into 2 ml of n-butanol. Absorbence is read at 532 nm and the results are reported as nmols of malondialdehyde equivalents.
Significant differences (p<0.05) are determined by the Dunnett T-test or by the Student-Newman-Keuls Test for significant differences between means. The assay is conducted using several concentrations I! of the inhibitor test compounds. The LDL solution concentrations at different experiments were either 1.5 mg/ml, 2.5 mg/ml or 10.3 mg/ml. The IC50 is determined by non-linear regression, plotting log I! vs. % inhibition. (Reference: K. Yagi, Biochemical Medicine 15, 212-216 (1976)).

LTB4 = test: Reverse Passive Arthus Reaction (pleurisy), LTB4 in pleural exudate; type: in vivo, male Lewis rats; settings: 25 mg/kg, p.o.
Method: 3. Reverse Passive Arthus Reaction
A reverse passive Arthus reaction is induced in the pleural cavity of male Lewis rats (150-200 g; fasted overnight prior to use) by the intravenous administration of bovine serum albumin (BSA; 4 mg/0.2 ml) followed 30 minutes later by the injection of rabbit anti-BSA (1 mg/2.0 ml; lyophilized IgG fraction; Organon Teknika, West Chester, Pa.) into the right pleural space under halothane anesthesia. Drugs or vehicle (0.5% Tween-80) control are administered orally in a volume of 1 ml/100 g body weight at 1 hour prior to the anti-BSA. Animals are sacrificed at either the time of peak eicosanoid production (i.e. 5 minutes after anti-BSA for immunoreactive T×B2, 10 minutes for immunoreactive LTB4, 20 minutes for immunoreactive LTC4) or at the time of peak neutrophil infiltration (4 hours after anti-BSA) by CO2 inhalation. The pleural cavity is then exposed, the fluid exudate removed by gentle vacuum aspiration and the volume of exudate is recorded. For the determination of cellular infiltration, the pleural cavity is rinsed with 3 ml of 0.1% EDTA in sterile saline, and the recovered wash is pooled with the exudate. Cell number is determined on a model ZBI Coulter counter. For determination of eicosanoid production, undiluted pleural exudate is microfuged and the supernatant is extracted with ethanol (8-10 times volume). Extracts are either stored at -20° C., or are evaporated to dryness under a stream of N2 and reconstituted in radioimmunoassay (RIA) buffer.
Eicosanoids are quantitated by RIA according to the procedure specified by the RIA kit manufacturer (Advanced Magnetics, Cambridge, MA). Briefly, 100 μl of ^3 H-labeled eicosanoid and 100 μl of specific antibody are sequentially added to 100 μl of extracted pleural exudate in BGG-phosphate buffer which contains 0.01M phosphate, 0.1% bovine gamma globulin and 0.1% sodium azide at pH 7.0. Antibody-bound eicosanoid is separated from unbound eicosanoid by the addition of 750 μl of dextran (0.4%)-coated charcoal (Norit A) containing 0.1% sodium azide. The mixture is centrifuged at 2000 RPM at 5° C. for 15 minutes to pellet the charcoal and adsorbed unbound eicosanoid. Antibody-bound labeled eicosanoid is quantitated by counting in a liquid scintillation counter, and is correlated to concentration by a standard curve.

atherosclerotic lesions = settings: WHHL rabbits, in words; cited from earlier work
LDL [1] = settings: in words; cited from earlier work
LDL [2] = settings: in words; cited from earlier work; remark: listed apart in the source

Compound | % Inhibition of LTB4 (Lipoxygenase; pretreatment period 3 hr) [%] | % Inhibition of LTB4 (Lipoxygenase; pretreatment period 6 hr) [%] | inhibition at 1 µM (5-Lipoxygenase) [%] | IC50 (Low Density Lipoprotein) [µM] | inhibition at 10 µM (5-Lipoxygenase) [%] | % Inhibition of LTB4 Synthesis (LTB4) [%] | other results
Cc1oc(-c2ccccc2)nc1COc1ccc(CN(O)C(N)=O)cc1Cl [Example 2, 1-3-Chloro-4-(5-methyl-2-phenyl-oxazol-4-ylmethoxy)-benzyl!-1-hydroxy-urea] | 68 | 72 | 31 | 0.56 |  |  | 
Cc1oc(-c2ccccc2)nc1COc1ccc(CN(O)C(N)=O)c(Cl)c1 [Example 3, 1-2-Chloro-4-(5-methyl-2-phenyl-oxazol-4-ylmethoxy)-benzyl!-1-hydroxy-urea] | 40 |  |  |  | 80 | 26 | 
COc1cc(CN(O)C(N)=O)ccc1OCc1nc(-c2ccccc2)oc1C [Example 4, 1-Hydroxy-1-3-methoxy-4-(5-methyl-2-phenyl-oxazol-4-ylmethoxy)-benzyl!-urea] |  |  |  | 0.81 | 81 |  | 
Cc1oc(-c2ccccc2)nc1COc1ccc(CN(O)C(N)=O)cc1F [Example 5, 1-3-Fluoro-4-(5-methyl-2-phenyl-oxazol-4-ylmethoxy)-benzyl!-1-hydroxy-urea] | 66 | 68 | 47 |  |  | 28 | 
NC(=O)N(O)Cc1ccc(OCc2csc(-c3ccc(Cl)cc3)n2)cc1 [Example 14, 1-4-2-(4-chloro-phenyl)-thiazol-4-ylmethoxy!-benzyl!-1-hydroxy-urea] |  |  | 71 | 1.1 |  |  | 
CC(C)(Sc1cc(C(C)(C)C)c(O)c(C(C)(C)C)c1)Sc1cc(C(C)(C)C)c(O)c(C(C)(C)C)c1 [Probucol] |  |  |  |  |  |  | inhibition of formation of atherosclerotic lesions (atherosclerotic lesions): inhibit the formation of atherosclerotic lesions; inhibition of Cu^+2 mediated oxidative modification of LDL (LDL [1]): inhibits; inhibition of cell mediated oxidative modification of LDL (LDL [2]): inhibits
